Measurements: patent EP1064940A1, “Antiviral therapy” (Universitair Medisch Centrum Utrecht, priority 1999, dated 2001)

Legend:
Format in all cases: cell-based
HIV-1Ba-L = assay: HIV-1 infection of monocyte-derived macrophages, p24-core antigen ELISA; details: Human immunodeficiency virus 1, Macrophage, MDM infected with HIV-1Ba-L, multiplicity of infection 0.02
Procedure: Cells are washed twice and monocytes are purified by countercurrent centrifugal elutriation. Cells are >98% monocytes by criteria of cell morphology on May-Grunwald-Giemsa-stained cytosmears and by nonspecific esterase staining using alpha-naphtylacetate (Sigma Chemical Co., St. Louis, MO) as substrate.
(§1) HIV-1 strain Ba-L is grown to high titer in MDM. The 50% tissue culture infectious dose (TCID50) of the virus stock is determined by endpoint dilution with serial fourfold dilutions in a 96-well microtiter plate on MDM. HIV-1 strain AT is grown to high titer in PHA-stimulated PBMC. The TCID50 of the virus stock is determined by endpoint dilution with serial fourfold dilutions in a 96-well microtiter plate on PBMC.
PBMC were washed twice and monocytes were purified by countercurrent centrifugal elutriation. […] Concentrations above 0.3 µM APHS inhibit p24 production. 30 µM APHS inhibits HIV-1 replication by 88%.

[1] = tested on: Monocyte-derived macrophages (MDM); assay: MTT cytotoxicity assay in monocyte-derived macrophages; details: 4 days incubation in different concentrations
Procedure: Cell viability is assessed by the MTT assay. In short, cells are incubated with MTT 3-(4,5-dimethylthiazol-2-yl)-2,5-diphenyltetrazollumbromide (Sigma) for 2 hours at 37 °C. During this time viable cells convert MTT into […] formazan dyes. Afterwards crystals are solubilised with a solution containing isopropanol. The OD of the supernatant is measured at 550 nm.
Fig 3 - Monocyte-derived macrophages (MDM) were obtained like described in legend of Fig.2. […] After a 4 days incubation period cellular viability was assessed by MTT cytotoxicity assay where viable cells convert MTT into a colored formazan dye that can be measured spectrophotometrically.

HIV-1 = HIV-1 infection of PHA-stimulated PBMC, p24-core antigen ELISA (strain not specified in the result); details: Human immunodeficiency virus 1; PHA-stimulated PBMC infected with HIV-1AT or HIV-1BaL; p24 after 4 and 5 days; read-out: Concentrations that inhibit HIV-1 production
Procedure: as §1

HIV-1BaL = HIV-1BaL infection of PHA-stimulated PBMC, p24-core antigen ELISA
Procedure: as §1

PBMC = assay: WST-1 cytotoxicity assay in PBMC; details: 5 days incubation
Procedure: Cell viability is assessed with WST-1 assay. Cells are incubated with the tetrazolium salt WST-1 (4-[3-(4-lodophenyl)-2-(4-nitrophenyl)-2H-5-tetrazolio]-1,3-benzene disulfonate) for 2 hours at 37 °C. During this time viable cells convert WST-1 into water soluble formazan dyes. The OD of the supernatant is measured at 550 nm.
Fig 5 - PBMC were obtained and stimulated as described in legend of Fig. 4. […] After a 5 days incubation period cellular viability was assessed by WST-1 cytotoxicity assay where viable cells convert WST-1 into a coloured formazan dye that can be measured spectrophotometrically.

In the case of `CCCCC#CCSc1ccccc1OC(C)=O` [APHS, o-(acetoxy-phenyl)hept-2-ynyl sulphide], the inhibition at 30 µM (HIV-1Ba-L; 30 µM APHS, read-out: inhibits HIV-1 replication by) is reported as 88%, the minimal effective concentration (HIV-1Ba-L; supernatant after 4 and 5 days, read-out: Concentrations that inhibit p24 production) is reported as greater than 0.3 µM and the “cytotoxicity (cellular viability, MTT)” value [1] is reported as “None of the tested concentrations of APHS was found to be cytotoxic”. For the same molecule, the minimal effective concentration (HIV-1) was greater than 1 µM, the inhibition at 1 µM (HIV-1BaL; Human immunodeficiency virus 1, 1 µM APHS, when infectivity is lower (Fig 4c), read-out: inhibit HIV-1BaL production by) was 50% and the inhibition at 30 µM (HIV-1BaL; Human immunodeficiency virus 1, 30 µM APHS, read-out: inhibit HIV-1BaL replication by) was 100%. The “Concentrations found to reduce viability” value (PBMC) was no less than 100 µM.
